Assay results taken from patent US20090023733A1, “Piperidine Derivatives, Their Process for Preparation, Their Use as Therapeutic Agents and Pharmaceutical Compositions Containing Them” (priority 2006, published 2009).

Legend:
[1] = target: T1, human recombinant CCR3 receptors (Homo sapiens, UniProt P51677); test: Compound affinity at human recombinant CCR3 receptors by competition of [3H]-4-(2,4-dichloro-3-methylphenoxy)-1'-[4-(methylsulfonyl)benzoyl]-1,4'-bipiperidine, CHO-K1 cell membranes; format: binding; details: mean pKi (Cheng-Prussof correction of pIC50), minimum of 2 experiments, recombinant human CCR3, 2 nM radioligand, 2 h at 37° C.
T1 construct: expressed in transfected cells
T1 sequence (P51677 1-355): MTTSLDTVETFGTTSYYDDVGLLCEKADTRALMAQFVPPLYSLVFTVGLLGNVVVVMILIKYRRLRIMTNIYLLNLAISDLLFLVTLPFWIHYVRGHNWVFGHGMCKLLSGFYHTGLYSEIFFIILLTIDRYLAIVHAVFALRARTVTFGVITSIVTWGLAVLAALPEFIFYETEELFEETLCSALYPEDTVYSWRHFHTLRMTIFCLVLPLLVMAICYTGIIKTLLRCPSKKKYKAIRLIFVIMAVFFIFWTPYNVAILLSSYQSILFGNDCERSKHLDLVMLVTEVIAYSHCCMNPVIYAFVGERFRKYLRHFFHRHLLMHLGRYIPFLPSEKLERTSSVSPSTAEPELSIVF
Protocol: Determination of Compound Affinity at Human Recombinant CCR3 Receptors Assessed By Competition Of [^3H]-4-(2,4-dichloro-3-methylphenoxy)-1′-[4-(methylsulfonyl)benzoyl]-1,4′-bipiperidine for CHO—K1 Cell Membranes In Vitro
Membranes, prepared from CHO—K1 cells stably expressing recombinant human CCR3, suspended in assay buffer (50 mM Tris-Base, pH 7.4; containing sodium chloride (100 mM) and magnesium chloride (2 mM)) were incubated in the presence of 2 nM [^3H]-4-(2,4-dichloro-3-methylphenoxy)-1′-[4-(methylsulfonyl)benzoyl]-1,4′-bipiperidine, along with vehicle (1% (v/v) DMSO), 4-(4-chloro-3-methylphenoxy)-1′-[2-(methylsulfonyl)benzoyl]-1,4′-bipiperidine (to define non-specific binding) or test compound for 2 h at 37° C. in round bottomed 96-well plates. The plates were then filtered onto GF/B filter plates, pre-soaked for 1 hour in plate-coating solution (0.3% (w/v) polyethylenimine, 0.2% (w/v) BSA in de-ionised water), using a 96-well plate Tomtec cell harvester. Four washes (250 μL) with wash buffer (50 mM Tris-Base, pH 7.4 containing sodium chloride (500 mM) and magnesium chloride (2 mM)) were performed at 4° C. to remove unbound radioactivity. Plates were dried and MicroScint-O (50 μL) was added to each well. The plates were sealed (TopSeal A) and filter-bound radioactivity was measured with a scintillation counter (TopCount, Packard BioScience) using a 1 minute counting protocol.
Specific binding was determined from values of the control wells minus the values for the NSB wells for each assay plate. pIC50 values were calculated using a four parameter logistic fit (where pIC50 is defined as the negative logarithm of the concentration of compound required for 50% reduction in specific [^3H]-4-(2,4-dichloro-3-methylphenoxy)-1′-[4-(methylsulfonyl)benzoyl]-1,4′-bipiperidine binding). Data were presented as mean pKi values (calculated by applying a Cheng-Prussof correction to pIC50 values) from a minimum of 2 separate experiments.

[2] = Determination of intrinsic clearance with human liver microsomes; format: in vitro ADME; details: human liver microsomes 1 mg protein/ml, NADPH, pH 7.4; CLint=ln 2/T1/2
Protocol: Determination of Intrinsic Clearance with Human Liver Microsomes
Frozen human liver microsomes (BD Gentest, Oxford) were defrosted and were then diluted with 0.1 M pH 7.4 phosphate buffer at 4° C. to 1 mg protein/ml. 0.45 mL aliquots of the microsome suspension were dispensed into flat-bottomed vials (1 per compound) and were allowed to come to room temperature (5 min). During the warming time, 5 μL of solution of each test compound (typically 100 μM in DMSO) was dispensed into separate vials resulting in a final DMSO concentration of 1%. 50 μL of a 10 mM solution of NADPH in phosphate buffer ([…] pH 7.4, 37° C.) was added to each vial to initiate metabolism.
50 μL Aliquots of the mixtures were removed at measured intervals and were immediately quenched by addition to 100 μL of methanol cooled in ice. The quenched samples were kept cold (at −20° C. or less) for at least 1 h and were then centrifuged to remove protein.
The supernatant solution was analysed using quantitative LCMS for the presence of test compound. From the concentrations of test compound at different time points a T1/2 may be calculated which may be converted to an intrinsic clearance using the equation: CLint=ln 2/T1/2.

| Ki [1] | CLint scaled at 1 µM [2] | Compound |
| --- | --- | --- |
| 12.6 nM | 30 mL/min/kg | O=C(CSc1ccc(C(=O)O)cc1CN1CCOCC1)NC1CCN(Cc2ccc(Cl)c(Cl)c2)CC1 [Example 18, 4-[(2-{[1-(3,4-Dichlorobenzyl)piperidin-4-yl]amino}-2-oxoethyl)thio]-3-(morpholin-4-ylmethyl)benzoic acid] |
| 6.31 nM | < 3 mL/min/kg | O=C(CSc1ccc(C(=O)O)cc1)NC1CCN(Cc2ccc(Cl)c(Cl)c2)CC1 [Example 7, 4-[(2-{[1-(3,4-Dichlorobenzyl)piperidin-4-yl]amino}-2-oxoethyl)thio]benzoic acid] |
| 251 nM | < 3 mL/min/kg | O=C(CSc1ccccc1C(=O)O)NC1CCN(Cc2ccc(Cl)c(Cl)c2)CC1 [Example 1, 2-[(2-{[1-(3,4-Dichlorobenzyl)piperidin-4-yl]amino}-2-oxoethyl)thio]benzoic acid] |
| 12.6 nM | < 3 mL/min/kg | O=C(CSc1cccc(C(=O)O)c1)NC1CCN(Cc2ccc(Cl)c(Cl)c2)CC1 [Example 4, 3-[(2-{[1-(3,4-Dichlorobenzyl)piperidin-4-yl]amino}-2-oxoethyl)thio]benzoic acid] |
